{"source": "patent US8765666B2", "about": "“Adenovirus dodecahedron particles for delivery of pharmaceutical agents” (Instytut Bio chemii i Biofizki PAN, priority 2009, dated 2014)", "tested_on": "HeLa cells", "test": "MTT cytotoxicity test", "conditions": "results not shown", "method": "In the test, the ability of live cells to reduce the soluble yellow tetrazolium salt (MTT) to blue formazan crystals is used. […] After 3 hours, foetal bovine serum was added to a final concentration of 10%. After various incubation times at 37° C., the incubation medium was removed and 100 μL EMEM containing 0.5 mg/mL MTT (Sigma) was added. The plates were incubated according to the manufacturer's instructions; optical density measurements were carried out using an HTi reader (Biotek, VT Winooski, USA). The number of live cells was calculated according to the protocol (Mosmann, 1983).", "note": "Structures can show the parent of a compound that is named as a salt.", "data": [{"smiles": "Cc1c(N)nc(C(CC(N)=O)NCC(N)C(N)=O)nc1C(=O)NC(C(=O)NC(C)C(O)C(C)C(=O)NC(C(=O)NCCc1nc(-c2nc(C(=O)NCCCNCCCCN)cs2)cs1)C(C)O)C(OC1OC(CO)C(O)C(O)C1OC1OC(CO)C(O)C(OC(N)=O)C1O)c1c[nH]cn1", "note": "(stereo not shown) [BLM, Bleomycin A5 hydrochloride]", "values": [{"measurement": "free BLM concentration giving cell mortality similar to Dd-BLM", "result": 8, "unit": "µM"}]}]}
